SMILES strings stand for the structures. Several values for one entry are separate records, joined by “and”; a condition that tells them apart may be missing. Identical values can stand only once. Entries after “also recorded” stand apart in the source; their conditions may differ.

For data set [1], the system named is satellite III chromatin in Kc nuclei. Description: Chromatin opening of satellite III: topoisomerase II / restriction enzyme cleavage in Kc nuclei. The class given is biochemical, Drosophila.
The next data set deals with w^m4 flies. Description: Polyamides fed to developing white-mottled flies. The class given is in vivo, Drosophila melanogaster. The following applies: for Lethality / Sex comb (mean) / Sex comb, range of teeth / A6 to A5: fly stock w^m4; for A6 to A5: males with bristles on A6. The source says:
The eye phenotype of w^m4 flies is quite heterogeneous. About 65% of the eyes are strongly variegated, ranging from quasi-white with little pigment to those containing a generally white background and a number of red patches (defined as the white-mottled class). The remaining flies have eyes with a darker appearance with often larger red patches in an orange background (red-mottled class). Given the phenotypic heterogeneity of w^m4 flies, we carried out our experiments on a relatively large scale by mixing these compounds directly with semi-synthetic fly medium. Vials were prepared containing a final concentration of either 100 μM P9, P31 or no compound. Equal numbers of 5 to 10 days old w^m4 flies were allowed to lay eggs for 36 hours. The parents were then removed and progeny development was allowed to proceed at a constant temperature of 18° C. […] The timing of the developmental stages was also normal and generally, around 90 to 160 flies hatched per vial in this experiment (Table 2).
For eye phenotype analysis, young flies born on the same day were transferred to a drug-free vial and scored 5 days thereafter. Eye phenotypes were categorized into the two classes defined as white-mottled or red-mottled, after examination under a dissection microscope. […] Where in the absence of the drug, 62% of the eyes were scored as white-mottled, only 11% retained this phenotype for the flies raised in the presence of P9. […] In contrast, P31 had no effect on the w^m4 eye phenotype, since 64% of the flies remained white-mottled (FIG. 7C, Table 2).
Vials for egg laying containing polyamides were prepared as follows: 250 nmoles of P9, P31 was dissolved in 150 μl ddH2O and then mixed with 2.35 g of semi-synthetic fly media pre-heated at 60° C. These vials contained a concentration 100 μM of compound in final. After cooling down to room temperature, ˜300 w^m4 flies (age 5-10 days) were added to the vial for egg laying. Eggs were collected for a period of 36 hours at 18° C., mother flies were then removed and fly development was allowed to proceed at a constant temperature (18° C.±1). New-born flies of the same day were transferred to a fresh vial and scored after 5 days for eye phenotypes (Girard et al., 1998). For visual inspection of eye-phenotypes (Table 1), both female and male flies were scored. For optical density measurements of the eye-pigments, 30 heads of males were selected, pigments extracted and measured as described (Hazelrigg et al., 1984).
(§1) The lethality of the progenies was calculated by counting the dead bodies and the total empty pupal shells. The A6 to A5 transformation was detected by bristles that form on abdominal segment A6 on males. All male adult flies obtained (˜50) were scored. Sex combs and halteres were individually inspected and photographed under the microscope (Axiophot, Zeiss) after dissecting at least 30 individuals and incubating them into 30 μl of 0.6 g/ml gum arabic; 4 g/ml chlorohydrate; 35% glycerol under a 24×24 mm coverslip as described (Ashburner, 1989). Since raising double heterozygous flies (Ubx^1/+; bw^D/+) led to lethality, we morphologically dissected eight late stage pupae after carefully removing the pupal envelope.

Data set [2] concerns GAF distribution at the bw^D insert of polytene nuclei. Description: GAF immunofluorescence in permeabilized bw^D salivary glands. The class given is cell-based, Drosophila melanogaster. To be noted: permeabilized glands incubated 60 minutes with compound. The protocol: We argued that perhaps P31 may open the bw^D insert as to render this heterochromatin more accessible for GAF binding. To address this question, we incubated permeabilized bw^D salivary glands either with P31, P9 or no drug and then triply stained the polytene nuclei for GAF (by immunofluorescence), total DNA (with DAPI) and for the bw^D insert (with P31T). Stained polytene glands were gently mounted for microscopy without squashing in order examine a large number of nuclei.
Kc nuclei and polytene chromosomes were stained with fluorescent polyamides as described elsewhere (Janssen et al., 2000). For immunofluorescence, polytene glands were carefully dissected from bw^D or Canton S. flies in 1× PBS as described (Ashburner, 1989) Whole glands in sol P (1×PBS supplemented with 1 mM MgCl2 and 0.1% digitonin) were then incubated for 60 minutes with various concentrations of either P31, P9 or no compound at room temperature. P31 (not P9) induced redistribution of GAF during this incubation step. Glands were washed then twice for 5 min with sol P and fixed with fresh paraformaldehyde at a final concentration of 0.8%. Glands were washed 5 times in sol P for 5 min and then blocked for 60 min in the same buffer, supplemented with 5% non-fat milk. […] Images were recorded with a wide field, deconvolution-type imaging system from DeltaVision.

Data set [3] deals with heterozygous bw^D flies (bw^D/+). The experiment in a line: Polyamides fed to developing heterozygous brown-dominant flies. The class given is in vivo, Drosophila melanogaster. To be noted: for eye phenotype / trans-inactivation (in words): bw^D/+, st/st progeny. The protocol: It was therefore of great interest to test whether P31 would affect the eye phenotype of heterozygous bw^D flies. […] The experiment is similar to that described above for w^m4. Vials with semi-synthetic fly food medium were prepared containing a final concentration of 100 μM P31, P9 or no compound. Egg laying was allowed to proceed for 36 hours by homozygous (bw^D/bw^D) females that were crossed with scarlet (st/st) males. The progeny from this cross is heterozygous for the brown locus and homozygous for scarlet (bw^D/+; st/st). In a scarlet background, a modification of the bw^D eye color is much easier to observe (Talbert et al., 1994).
Drug treatments of the bw^D flies were performed as for w^m4 flies except that 30 parental females were allowed to lay eggs. To obtain the heterozygous bw^D/+; st/st progeny, 30 virgin bw^D/bw^D; st/st homozygous females were mated with scarlet homozygous males for about 5 days before transferring them to experimental vials for egg laying.
as §1

Where [4] appears, read: 100 μM in fly food, eyes scored after 5 days.
[5] abbreviates: 30 male heads, spectrometry, 100 μM in food.

As to `CN(C)CCCNC(=O)CCNC(=O)c1cc(NC(=O)c2cc(NC(=O)c3cc(NC(=O)CCNC(=O)c4cc(NC(=O)c5cc(NC(=O)c6cccn6C)cn5C)cn4C)cn3C)cn2C)cn1C` [Compound P9, PyPyPy-β-PyPyPy-β-Dp], the “facilitation of cleavage by topoisomerase II (in words)” value in data set [1] is “strongly facilitate cleavage”. In data set [1] (62 nM, lowest concentration), the “stimulation of topoisomerase II cleavage at 62 nM” value is “massive cleavage stimulation”. Also, the “concentration of maximal stimulation of topoisomerase II cleavage” value in data set [1] (Kc nuclei in Xenopus egg extracts, VM26) is 500 nM and 500 to 1000 nM. Further, the “lower concentration than P31 needed to open satellite III” value in data set [1] (P9 versus P31) is reported as “roughly 10 fold”. Besides, the “cleavage within satellite III by restriction enzymes (HaeIII)” value in data set [1] (data not shown) is given as “facilitated cleavage within satellite III by restriction enzymes”. Moreover, the “effect on PEV / w^m4 eye phenotype (in words)” value in the data set with w^m4 flies (100 μM in fly food) is listed as “strong suppressor of PEV”. Further, in the data set on w^m4 flies (setting [4]), the “"White mottled" (Strongly Variegated)” value was found to be 8.9%. Moreover, in the data set on w^m4 flies (setting [5]), the “red pigment level relative to control flies (no drug)” value is reported as “about 3 times” and the “red pigment level relative to wild type flies” value is listed as “about 50%”. Also, in the data set on w^m4 flies, the Lethality was 5-10%; the “Sex comb (mean)” value was determined as 10.8; the “Sex comb, range of teeth” value is 9-12; the “A6 to A5” value was 0%. Also, the “GAF distribution relative to the bw^D insert” value in data set [2] is “does not alter this pattern”. In data set [3], the “eye phenotype / trans-inactivation (in words)” value was “indistinguishable from that of the no-drug control”. Moreover, in data set [3] (fly stock bw^D/bw^+), the “A6 to A5, number of bristles on A6” value is reported as “no bristles were observed” and the Lethality was 5-10%. Moreover, the “A6 to A5” value in data set [3] (fly stock bw^D/bw^+, males with bristles on A6) was found to be 0%.

For `CN(C)CCCNC(=O)CCNC(=O)c1nc(NC(=O)CCNC(=O)c2nc(NC(=O)CCNC(=O)c3cc(NC(=O)c4nc(NC(=O)CCNC(=O)c5nccn5C)cn4C)cn3C)cn2C)cn1C` [Compound P31, Im-β-Im-Py-β-Im-β-Im-β-Dp], in data set [1], the “concentration giving cleavage stimulation comparable to 62 nM of P9” value is reported as 500 nM. Further, the “stimulation of topoisomerase II cleavage up to 200 nM” value in data set [1] (up to 200 nM) is “no significant reinforcement”. For the same compound, the “effect on PEV / w^m4 eye phenotype (in words)” value in the data set on w^m4 flies (100 μM in fly food) was “no effect; also recorded: no activity”. For the same compound, in the data set with w^m4 flies (setting [4]), the “"White mottled" (Strongly Variegated)” value turned out to be 64% and the “"red Mottled" (Weakly Variegated)” value was 36%. Also, in the data set with w^m4 flies, the Lethality was 5-10%; the “Sex comb (mean)” value is reported as 10.8; the “Sex comb, range of teeth” value is 9-13; the “A6 to A5” value is 0%. For the same compound, in data set [2], the “GAF distribution relative to the bw^D insert” value is on record as “dramatic GAF redistribution”. Moreover, in data set [3] (bw^D/+ progeny), the “mean number of bristles on A6” value came out at 3.75. For the same compound, the “eye phenotype / trans-inactivation (in words)” value in data set [3] is “does not overcome trans-inactivation to a significant extent”. In addition, in data set [3] (fly stock bw^D/bw^+), the Lethality is listed as 5-10%; the “Sex comb (mean)” value was determined as 8.1; the “Sex comb, range of teeth” value is 7-10. In addition, the PEV entry in data set [3] (fly stock bw^D/bw^+, grade, key not given) is listed as “(+?)”. For the same compound, the “progeny lacking bristles on A6” value in data set [3] (heterozygous progeny) is “about 10%”. Also, in data set [3] (in vivo), the “Pupae delay” value lay within 65 to 67 h and the developmental delay result is “over 2 days”.
